According to patent US6552054B1, “Chromone derivatives, process for the preparation of the same and uses thereof” (Takeda Chemical Industries, Ltd., priority 1999, dated 2003):

Tested on: stromal cells prepared from the femur bone marrow of a normal rat
Assay: Osteogenesis promoting effect: alkaline phosphatase activity in cultured bone marrow stromal cells
Format: cell-based, rat (Sprague-Dawley)
Settings: test compound 10^−5 M added from 2nd day of culture, cultured additional 5 days, mean ± S.E. (n = 4)
Method: Osteogenesis promoting effect:
Using the stromal cells prepared from the femur bone marrow of a normal rat, an alkaline phosphatase activity was measured as an index of osteogenesis. Briefly, according to the method of Maniatopoulos et al. [Cell Tissue Research, volume 254, p.317 ([…])], the stromal cells were prepared from the femur bone of a Sprague-Dawley male rat, 7 weeks of age, and cultured in an α-MEM (minimum essential medium) solution containing dexamethasone (10^−7M) and β-glycerophosphoric acid (10^−2M) in order to generate calcified bony tissue. One week later, the confluent primary cells were treated with 0.25% trypsin-0.25% EDTA solution, recovered, and subclutured on a culture plate at a cell density of […], (cultured day 0). From the 2nd day of the culture, a test compound (10^−5M) was added to the above culture medium, and cultured for an additional 5 days. The cells were washed with a phosphate buffer, and after addition of 0.2% Nonidet P-40, they were homogenized and centrifuged at 3000 rpm for 10 minutes. The supernatant was measured for an alkaline phosphatase activity according to the method of Lowry et al. [Journal of Biological Chemistry, volume 207, p.19 (1954)]. Tables 1 and 2 show the measured values in terms of mean±standard error (SE). Statistical analysis was performed by means of the Student's t-test.

[1] = Table 1, control (no addition) 0.175 ± 0.009
[2] = Table 2, control (no addition) 0.180 ± 0.008

Structure (SMILES)	Alkaline phosphatase activity (A405) [1] [A405]	Alkaline phosphatase activity (A405) [2] [A405]
O=C1NC(=O)C(Cc2ccc(NC(=O)c3cc(=O)c4ccccc4o3)cc2)S1 (centres unmarked) [Example no. 1, N-[4-[(2,4-dioxo-1,3-thiazolidin-5-yl)methyl]phenyl]-4-oxo-4H-1-benzopyran-2-carboxamide]	0.564 ± 0.041	
O=C1NC(=O)C(Cc2ccc(NC(=O)c3cc(=O)c4c(O)cccc4o3)cc2)S1 (centres unmarked) [Example no. 16, N-[4-[(2,4-dioxo-1,3-thiazolidin-5-yl)methyl]phenyl]-5-hydroxy-4-oxo-4H-1-benzopyran-2-carboxamide]		0.720 ± 0.033
O=C1NC(=O)C(Cc2ccc(NC(=O)c3cc(=O)c4ccccc4o3)cc2)O1 (centres unmarked) [Example no. 2, N-[4-[(2,4-dioxo-1,3-oxazolidin-5-yl)methyl]phenyl]-4-oxo-4H-1-benzopyran-2-carboxamide]	0.310 ± 0.008	
O=C1NC(=O)C(Cc2ccc(NC(=O)c3cc(=O)c4c(O)cc(O)cc4o3)cc2)S1 (centres unmarked) [Example no. 18]		0.720 ± 0.037
O=C(Nc1ccc(CN2CCOCC2)cc1)c1cc(=O)c2ccccc2o1 [Example no. 5, N-[4-[(4-morpholinyl)methyl]phenyl]-4-oxo-4H-1-benzopyran-2-carboxamide]	0.558 ± 0.040	
